The numbers were not newly measured in patent publication US7910678B2, “Copolymers having 1-methyl-2-methoxyethyl moieties” (Abbott Laboratories, priority 2006, dated 2011), which cites them from elsewhere.

The data set has as its system mouse.

Like-named read-outs stand apart in the source and are kept apart here.

In the case of `CCO` [ethanol], the “Oral-mouse LD50” value (in vivo, po) is recorded as 3450 mg/kg.
As for `COCC(C)O` (stereo not shown) [1-methoxy-2-propanol], where the note is “oral”, the “Oral-mouse LD50” value is 11700 mg/kg.
`CCOCCO` [2-ethoxyethanol]: for the setting “oral”, the “Oral-mouse LD50” value was 2451 mg/kg.
Consider `COCCO` [2-methoxyethanol], for which, where the note is “oral”, the “Oral-mouse LD50” value was 2560 mg/kg.
